Measured values taken from paper PMC8915595, “Revisiting the application of Immobilized Artificial Membrane (IAM) chromatography to estimate in vivo distribution properties of drug discovery compounds based on the model of marketed drugs” (ADMET & DMPK, 2020).

Experiments:
[1] = IAM chromatography on new IAM.PC.DD2 columns (gradient HPLC, CHI (IAM)); assay type: physicochemical; set-up: key to CHI (IAM) “new” / P20511-014-3 CHI (IAM): CHI (IAM) from retention times calibrated to predefined CHI standards; details: for P20511-014-3 CHI (IAM): new IAM.PC.DD2 column batch P20511-014-3, pH 7.4; for R20511-014-3 CHI (IAM): new IAM.PC.DD2 column batch R20511-014-3, pH 7.4
Method: The IAM binding was measured using IAM.PC.DD2 HPLC columns (Regis Technologies, Inc., IL, USA) with dimensions of 100 x 4.6 mm, particle size 10 μm with 300 Å pore size.
Two batches of IAM.PC.DD2 columns were studied (R20511-014-3 and P20511-014-3) that had been prepared using the new batches of silica support.
The retention times were standardized using the IAM calibration mixture, containing octanophenone, heptanophenone, hexanophenone, valerophenone, butyrophenone, propiophenone, acetophenone, acetanilide and paracetamol. The retention times of the compounds were plotted against the isocratically determined and predefined CHI (IAM) values listed in Table 1. The slope and intercept of the obtained straight line was used to calculate the CHI IAM values of new compounds.

[2] = human
[3] = reference CHI (IAM), old columns; cited from earlier work
[4] = molecular target: T1, human serum albumin (HSA) (Homo sapiens, UniProt P02768); details: cited from earlier work
T1 sequence (P02768 25-609): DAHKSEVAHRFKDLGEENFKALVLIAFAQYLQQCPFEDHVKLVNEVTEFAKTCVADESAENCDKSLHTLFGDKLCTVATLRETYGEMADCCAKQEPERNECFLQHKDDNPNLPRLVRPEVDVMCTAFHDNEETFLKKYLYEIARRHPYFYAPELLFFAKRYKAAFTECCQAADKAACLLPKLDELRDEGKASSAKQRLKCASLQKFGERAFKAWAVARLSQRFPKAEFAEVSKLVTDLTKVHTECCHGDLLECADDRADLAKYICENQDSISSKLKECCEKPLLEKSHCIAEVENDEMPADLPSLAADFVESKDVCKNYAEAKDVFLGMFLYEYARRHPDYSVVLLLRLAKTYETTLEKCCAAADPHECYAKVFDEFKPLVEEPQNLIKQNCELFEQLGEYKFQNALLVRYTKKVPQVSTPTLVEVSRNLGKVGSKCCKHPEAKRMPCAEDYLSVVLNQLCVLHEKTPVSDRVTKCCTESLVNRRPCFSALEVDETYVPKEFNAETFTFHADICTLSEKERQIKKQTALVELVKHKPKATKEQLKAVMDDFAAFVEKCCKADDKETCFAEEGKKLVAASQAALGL

[5] = molecular target: T1, human serum albumin (HSA); experiment: Protein binding on chemically bonded HSA column (Chiralpak-HSA); details: remeasured in this study, pH 7.4
Method: Mobile phase A was 50 mM ammonium acetate adjusted to pH 7.4 and mobile phase B was 2-propanol. The flow rate was 1.5 mL/min and the run time was 6 min. The 2-propanol gradient was applied from 0 to 35% from 0 to 3.00 min and kept at 35% until 4.00 min.

| Compound | P20511-014-3 CHI (IAM) [1] | R20511-014-3 CHI (IAM) [1] | reference log Vdss [2] | CHI (IAM) from ref [13] [3] | log K HSA from ref [13] [4] | log K HSA [5] | CHI (IAM) deviation between reference and new IAM.PC.DD2 columns ([1]; system suitability test compounds) | CHI (IAM) “new” ([1]; system suitability test compounds, new IAM.PC.DD2 columns, pH 7.4) |
| --- | --- | --- | --- | --- | --- | --- | --- | --- |
| CCOC(=O)C1=C(C)NC(C)=C(C(=O)OC)C1c1cccc([N+](=O)[O-])c1 (stereo not shown) [Nitrendipine] | 39.19 | 39.06 | 0.16 | 40.50 | 2.35 | 2.70 | – | – |
| COC(=O)C1=C(C)NC(C)=C(C(=O)OCCN(C)Cc2ccccc2)C1c1cccc([N+](=O)[O-])c1 (stereo not shown) [Nicardipine] | 43.73 | 43.82 | 0.47 | 45.90 | 1.41 | 1.95 | very similar | 45.0 |
| CC(C(=O)O)c1cccc(Oc2ccccc2)c1 (stereo not shown) [Fenoprofen] | 28.26 | 27.17 | -1.27 | 17.20 | 1.58 | 2.32 | – | – |
| C#C[C@]1(O)CC[C@H]2[C@@H]3CCc4cc(O)ccc4[C@H]3CC[C@@]21C [Ethinyl estradiol] | 45.23 | 45.30 | 0.39 | 46.80 | 0.46 | 0.50 | – | – |
| O=C1NC(=O)C(c2ccccc2)(c2ccccc2)N1 [Phenytoin] | 30.20 | 30.18 | 0.03 | 31.60 | 0.54 | 0.63 | – | – |
| C[C@H]1C[C@@H]2[C@H]([C@@H](O)C[C@@]3(C)[C@H]2CC[C@]3(O)C(=O)CO)[C@@]2(C)C=CC(=O)C=C12 [Methylprednisolone] | 30.77 | 30.91 | 0.16 | 32.10 | 0.76 | 0.28 | – | – |
| CC1=NS(=O)(=O)c2cc(Cl)ccc2N1 [Diazoxide] | 23.44 | 23.39 | -0.16 | 24.70 | 5.42 | 5.58 | – | – |
| NS(=O)(=O)c1cc2c(cc1Cl)NCNS2(=O)=O [Hydrochlorothiazide] | 13.08 | 13.04 | -0.13 | 15.90 | 0.92 | 1.05 | – | – |
| Nc1cc(N2CCCCC2)nc(N)[n+]1[O-] [Minoxidil] | 16.08 | 15.93 | -0.04 | 19.00 | 3.16 | 3.41 | – | – |
| CC(C)(C)NC(=O)[C@H]1CC[C@H]2[C@@H]3CC[C@H]4NC(=O)C=C[C@]4(C)[C@H]3CC[C@]12C [Finasteride] | 37.17 | 37.15 | 0.3 | – | 3.62 | 3.55 | – | – |
| CC(O)Cn1cnc2c1c(=O)n(C)c(=O)n2C (stereo not shown) [Proxyphylline] | 10.89 | 10.05 | -0.85 | – | 1.97 | 3.02 | – | – |
| COc1ccc(NS(=O)(=O)c2ccc(N)cc2)nn1 [Sulfamethoxypyridazine] | 11.16 | 11.11 | -0.59 | – | 2.33 | 4.27 | – | – |
| C[C@]12C=CC(=O)C=C1CC[C@@H]1[C@@H]2C(=O)C[C@@]2(C)[C@H]1CC[C@]2(O)C(=O)CO [Prednisone] | 25.13 | 25.25 | 0.05 | – | 0.62 | 0.42 | – | – |
